Target: recombinant human His-ATG7 enzyme (Homo sapiens (Human), UniProt O95352)
Assay: ATG7 Enzyme Assay (HTRF/FRET, ATG3-GST and Flag-Gabarap)
Assay type: biochemical
Settings: for inhibition at 0.111 µM: Concentration 0.111 μM; for inhibition at 0.123 µM: Concentration 0.123 μM
Outline: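 0.15 nM His-ATG7 was reacted with 5 nM ATG3-GST, 5 nM Flag-Gabarap and 10 μM ATP in HEPES pH 7.5 containing MgCl2, GSH and TCEP for 105 min at 24° C, then stopped with EDTA/KF. Eu-anti-Flag and anti-GST-APC HTRF was read after 2 h. Results are given as single-concentration % inhibition or IC50.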

recombinant human His-ATG7 enzyme, sequence (O95352 whole entry): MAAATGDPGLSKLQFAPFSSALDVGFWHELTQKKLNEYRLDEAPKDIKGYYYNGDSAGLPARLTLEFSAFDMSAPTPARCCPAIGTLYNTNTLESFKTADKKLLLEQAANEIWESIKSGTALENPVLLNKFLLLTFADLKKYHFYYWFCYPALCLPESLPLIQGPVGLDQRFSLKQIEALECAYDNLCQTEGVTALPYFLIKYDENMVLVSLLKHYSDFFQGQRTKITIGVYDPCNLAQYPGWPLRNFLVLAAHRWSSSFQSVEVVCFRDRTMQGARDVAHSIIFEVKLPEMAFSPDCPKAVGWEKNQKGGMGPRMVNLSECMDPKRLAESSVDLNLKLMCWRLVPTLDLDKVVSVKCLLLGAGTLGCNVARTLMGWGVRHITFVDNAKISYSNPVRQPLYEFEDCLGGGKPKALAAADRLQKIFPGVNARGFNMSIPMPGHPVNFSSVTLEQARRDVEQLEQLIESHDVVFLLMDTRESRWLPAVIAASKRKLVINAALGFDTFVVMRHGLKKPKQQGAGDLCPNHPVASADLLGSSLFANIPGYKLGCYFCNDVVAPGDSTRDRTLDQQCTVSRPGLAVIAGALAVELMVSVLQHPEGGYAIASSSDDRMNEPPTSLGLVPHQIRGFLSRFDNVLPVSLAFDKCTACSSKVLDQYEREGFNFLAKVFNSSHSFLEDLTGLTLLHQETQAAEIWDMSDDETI

| SMILES | IC50 [nM] | inhibition at 0.111 µM (read-out: Percent Inhibition) [%] | inhibition at 0.069 µM (Concentration 0.069 μM, read-out: Percent Inhibition) [%] | inhibition at 0.123 µM (read-out: Percent Inhibition) [%] |
| --- | --- | --- | --- | --- |
| Nc1ncnc2c1c(SC1CCCC1)nn2[C@@H]1O[C@H](COS(N)(=O)=O)[C@@H](O)[C@@H]1F [Compound I-103, {(2R,3R,4S,5R)-5-[4-amino-3-(cyclopentylsulfanyl)-1H-pyrazolo[3,4-d]pyrimidin-1-yl]-4-fluoro-3-hydroxytetrahydrofuran-2-yl}methyl sulfamate] | < 20 | 84 | – | – |
| Nc1ncnc2c1c(Oc1ccccc1)nn2[C@@H]1O[C@H](COS(N)(=O)=O)[C@@H](O)[C@H]1O [Compound I-37, [(2R,3S,4R,5R)-5-(4-amino-3-phenoxy-1H-pyrazolo[3,4-d]pyrimidin-1-yl)-3,4-dihydroxytetrahydrofuran-2-yl]methyl sulfamate] | > 500 | – | 7 | – |
| Nc1ncnc2c1c(OCCCl)nn2[C@@H]1O[C@H](COS(N)(=O)=O)[C@@H](O)[C@H]1O [Compound I-75, {(2R,3S,4R,5R)-5-[4-amino-3-(2-chloroethoxy)-1H-pyrazolo[3,4-d]pyrimidin-1-yl]-3,4-dihydroxytetrahydrofuran-2-yl}methyl Sulfamate] | 100 to 500 | – | – | 41 |
| COC(C)c1nn([C@@H]2O[C@H](COS(N)(=O)=O)[C@@H](O)[C@H]2O)c2ncnc(N)c12 (mixture of isomers) [Compound I-22, [(2R,3S,4R,5R)-5-{4-amino-3-[(1R)-1-methoxyethyl]-1H-pyrazolo[3,4-d]pyrimidin-1-yl}-3,4-dihydroxytetrahydrofuran-2-yl]methyl Sulfamate and [(2R,3S,4R,5R)-5-{4-amino-3-[(1S)-1-methoxyethyl]-1H-pyrazolo[3,4-d]pyrimidin-1-yl}-3,4-dihydroxytetrahydrofuran-2-yl]methyl Sulfamate] | > 500 | – | – | 5 |
| Cc1ccc(Sc2nn([C@H]3C[C@H](O)[C@@H](COS(N)(=O)=O)O3)c3ncnc(N)c23)cc1 [Compound I-193, [(2R,3S,5R)-5-{4-amino-3-[(4-methylphenyl)sulfanyl]-1H-pyrazolo[3,4-d]pyrimidin-1-yl}-3-hydroxytetrahydrofuran-2-yl]methyl sulfamate] | 100 to 500 | 46 | – | – |
| CC(C)(C)Sc1nn([C@H]2C[C@H](O)[C@@H](COS(N)(=O)=O)O2)c2ncnc(N)c12 [Compound I-177, {(2R,3S,5R)-5-[4-amino-3-(tert-butylsulfanyl)-1H-pyrazolo[3,4-d]pyrimidin-1-yl]-3-hydroxytetrahydrofuran-2-yl}methyl sulfamate] | 20 to 50 | 70 | – | – |
| N#CCSc1nn([C@H]2C[C@H](O)[C@@H](COS(N)(=O)=O)O2)c2ncnc(N)c12 [Compound I-188, [(2R,3S,5R)-5-{4-amino-3-[(cyanomethyl)sulfanyl]-1H-pyrazolo[3,4-d]pyrimidin-1-yl}-3-hydroxytetrahydrofuran-2-yl]methyl sulfamate] | 100 to 500 | 37 | – | – |
| Cc1ccc(F)c(Sc2nn([C@H]3C[C@H](O)[C@@H](COS(N)(=O)=O)O3)c3ncnc(N)c23)c1 [Compound I-191, [(2R,3S,5R)-5-{4-amino-3-[(2-fluoro-5-methylphenyl)sulfanyl]-1H-pyrazolo[3,4-d]pyrimidin-1-yl}-3-hydroxytetrahydrofuran-2-yl]methyl sulfamate] | 50 to 100 | 63 | – | – |
| COC(=O)c1nn([C@@H]2O[C@H](COS(N)(=O)=O)C(O)C2O)c2ncnc(N)c12 (stereo in doubt) [Compound I-20, methyl 4-amino-1-{(2R,3S,4R,5R)-3,4-dihydroxy-5-[(sulfamoyloxy)methyl]tetrahydrofuran-2-yl}-1H-pyrazolo[3,4-d]pyrimidine-3-carboxylate] | 100 to 500 | – | – | 45 |
| CC(C)Sc1nn([C@@H]2O[C@@H](COS(N)(=O)=O)[C@@H](O)[C@H]2O)c2ncnc(N)c12 [Compound I-95, {(2S,3S,4R,5R)-5-[4-amino-3-(isopropylsulfanyl)-1H-pyrazolo[3,4-d]pyrimidin-1-yl]-3,4-dihydroxytetrahydrofuran-2-yl}methyl Sulfamate] | 100 to 500 | – | – | 47 |
| N#Cc1cccc(Sc2nn([C@@H]3O[C@H](COS(N)(=O)=O)[C@@H](O)[C@@H]3F)c3ncnc(N)c23)c1 [Compound I-153, [(2R,3R,4S,5R)-5-{4-amino-3-[(3-cyanophenyl)sulfanyl]-1H-pyrazolo[3,4-d]pyrimidin-1-yl}-4-fluoro-3-hydroxytetrahydrofuran-2-yl]methyl sulfamate] | 50 to 100 | 58 | – | – |
| CC(C)Sc1nn([C@@H]2O[C@H](COS(N)(=O)=O)[C@@H](O)[C@@H]2F)c2ncnc(N)c12 [Compound I-139, {(2R,3R,4S,5R)-5-[4-amino-3-(isopropylsulfanyl)-1H-pyrazolo[3,4-d]pyrimidin-1-yl]-4-fluoro-3-hydroxytetrahydrofuran-2-yl}methyl Sulfamate] | 20 to 50 | 84 | – | – |
| CSCc1nn([C@@H]2O[C@H](COS(N)(=O)=O)[C@@H](O)[C@H]2O)c2ncnc(N)c12 [Compound I-93, [(2R,3S,4R,5R)-5-{4-amino-3-[(methylsulfanyl)methyl]-1H-pyrazolo[3,4-d]pyrimidin-1-yl}-3,4-dihydroxytetrahydrofuran-2-yl]methyl Sulfamate] | 100 to 500 | – | – | 47 |
| COc1cccc(Sc2nn([C@@H]3O[C@H](COS(N)(=O)=O)[C@@H](O)[C@@H]3F)c3ncnc(N)c23)n1 [Compound I-107, [(2R,3R,4S,5R)-5-{4-amino-3-[(6-methoxypyridin-2-yl)sulfanyl]-1H-pyrazolo[3,4-d]pyrimidin-1-yl}-4-fluoro-3-hydroxytetrahydrofuran-2-yl]methyl sulfamate] | 50 to 100 | 61 | – | – |
| CCC(C)Sc1nn([C@@H]2O[C@H](COS(N)(=O)=O)[C@@H](O)[C@@H]2F)c2ncnc(N)c12 (mixture of isomers) [Compound I-136, [(2R,3R,4S,5R)-5-{4-amino-3-[(2R)-butan-2-ylsulfanyl]-1H-pyrazolo[3,4-d]pyrimidin-1-yl}-4-fluoro-3-hydroxytetrahydrofuran-2-yl]methyl sulfamate and [(2R,3R,4S,5R)-5-{4-amino-3-[(2S)-butan-2-ylsulfanyl]-1H-pyrazolo[3,4-d]pyrimidin-1-yl}-4-fluoro-3-hydroxytetrahydrofuran-2-yl]methyl sulfamate] | 20 to 50 | 69 | – | – |
| Cc1nn([C@H]2C[C@H](O)[C@H](COS(N)(=O)=O)O2)c2ncnc(N)c12 [Compound I-218, [(2S,3S,5R)-5-(4-amino-3-methyl-1H-pyrazolo[3,4-d]pyrimidin-1-yl)-3-hydroxytetrahydrofuran-2-yl]methyl Sulfamate] | > 500 | 8 | – | – |
| Nc1ncnc2c1c(SC1CCOC1)nn2[C@@H]1O[C@H](COS(N)(=O)=O)[C@@H](O)[C@@H]1F (mixture of isomers) [Compound I-123, [(2R,3R,4S,5R)-5-{4-amino-3-[(3R)-tetrahydrofuran-3-ylsulfanyl]-1H-pyrazolo[3,4-d]pyrimidin-1-yl}-4-fluoro-3-hydroxytetrahydrofuran-2-yl]methyl sulfamate and [(2R,3R,4S,5R)-5-{4-amino-3-[(3S)-tetrahydrofuran-3-ylsulfanyl]-1H-pyrazolo[3,4-d]pyrimidin-1-yl}-4-fluoro-3-hydroxytetrahydrofuran-2-yl]methyl sulfamate] | 20 to 50 | 78 | – | – |
| CC(C#N)Sc1nn([C@@H]2O[C@H](COS(N)(=O)=O)[C@@H](O)[C@@H]2F)c2ncnc(N)c12 (mixture of isomers) [Compound I-149, [(2R,3R,4S,5R)-5-(4-amino-3-{[(1R)-1-cyanoethyl]sulfanyl}-1H-pyrazolo[3,4-d]pyrimidin-1-yl)-4-fluoro-3-hydroxytetrahydrofuran-2-yl]methyl sulfamate and [(2R,3R,4S,5R)-5-(4-amino-3-{[(1S)-1-cyanoethyl]sulfanyl}-1H-pyrazolo[3,4-d]pyrimidin-1-yl)-4-fluoro-3-hydroxytetrahydrofuran-2-yl]methyl sulfamate] | 20 to 50 | 82 | – | – |
| Nc1ncnc2c1c(SCC1CC(F)(F)C1)nn2[C@@H]1O[C@H](COS(N)(=O)=O)[C@@H](O)[C@@H]1F [Compound I-97, [(2R,3R,4S,5R)-5-(4-amino-3-{[(3,3-difluorocyclobutyl)methyl]sulfanyl}-1H-pyrazolo[3,4-d]pyrimidin-1-yl)-4-fluoro-3-hydroxytetrahydrofuran-2-yl]methyl sulfamate] | 20 to 50 | 66 | – | – |
| Nc1ncnc2c1c(SCc1ccc(F)cc1)nn2[C@@H]1O[C@H](COS(N)(=O)=O)[C@@H](O)[C@H]1O [Compound I-63, [(2R,3S,4R,5R)-5-{4-amino-3-[(4-fluorobenzyl)sulfanyl]-1H-pyrazolo[3,4-d]pyrimidin-1-yl}-3,4-dihydroxytetrahydrofuran-2-yl]methyl sulfamate] | 20 to 50 | 83 | – | – |
| Nc1ncnc2c1c(Sc1ccc([N+](=O)[O-])cn1)nn2[C@@H]1O[C@H](COS(N)(=O)=O)[C@@H](O)[C@@H]1F [Compound I-111, [(2R,3R,4S,5R)-5-{4-amino-3-[(5-nitropyridin-2-yl)sulfanyl]-1H-pyrazolo[3,4-d]pyrimidin-1-yl}-4-fluoro-3-hydroxytetrahydrofuran-2-yl]methyl sulfamate] | 20 to 50 | 73 | – | – |
| CCSc1nn([C@H]2C[C@H](O)[C@H](COS(N)(=O)=O)O2)c2ncnc(N)c12 [Compound I-213, {(2S,3S,5R)-5-[4-amino-3-(ethylsulfanyl)-1H-pyrazolo[3,4-d]pyrimidin-1-yl]-3-hydroxytetrahydrofuran-2-yl}methyl sulfamate] | 100 to 500 | 46 | – | – |

Reference: patent US10865208B2, “ATG7 inhibitors and the uses thereof” (Millennium Pharmaceuticals, Inc., priority 2016, dated 2020)
